Here are results for six cell lines from the supplement of paper PMC10307832.

Test in all cases: relative viability (nuclei count vs DMSO), 5 days (fraction); higher = more cells survive
Compound in the assay “Veliparib + Linsitinib”: C[C@]1(c2nc3c(C(N)=O)cccc3[nH]2)CCCN1 [Veliparib] + C[C@]1(O)C[C@@H](c2nc(-c3ccc4ccc(-c5ccccc5)nc4c3)c3c(N)nccn32)C1 [Linsitinib] (partner 1 µM)
A digest of the protocol: (§1)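 Relative viability was taken as the ratio of nuclei in treated wells to nuclei in vehicle wells. Lung cancer cell lines in 1536-well plates received compounds by pin tool one day after seeding, either one drug alone or a fixed anchor-drug dose plus five library-drug doses (not always all listed) in √10 steps. Nuclei were counted on 4× images after 5 days of treatment, and values are medians of duplicate plates.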

Compound in the assay “Veliparib + Bortezomib”: C[C@]1(c2nc3c(C(N)=O)cccc3[nH]2)CCCN1 [Veliparib] + CC(C)C[C@H](NC(=O)[C@H](Cc1ccccc1)NC(=O)c1cnccn1)B(O)O [Bortezomib] (partner 0.002 µM)
In a few lines: as §1

Compound in the assay “Veliparib + Foretinib”: C[C@]1(c2nc3c(C(N)=O)cccc3[nH]2)CCCN1 [Veliparib] + COc1cc2c(Oc3ccc(NC(=O)C4(C(=O)Nc5ccc(F)cc5)CC4)cc3F)ccnc2cc1OCCCN1CCOCC1 [Foretinib] (partner 0.25 µM)
In a few lines: as §1

Compound in assay [1]: COC1=CC=C(C=C1)CN2C=CC3=C2C=C(C=C3)C(=O)NO + Cc1cc(Nc2cc(N3CCN(C)CC3)nc(Sc3ccc(NC(=O)C4CC4)cc3)n2)n[nH]1 [Tozasertib] (partner 0.1 µM)
A digest of the protocol:
as §1

For the cell line NCI-H1915, the relative viability with Veliparib + Linsitinib (first compound 0.02 µM) is 1.07; with Veliparib + Linsitinib (first compound 0.06325 µM), 1.07; in the assay with Veliparib + Linsitinib (first compound 0.2 µM), 1.02; with Veliparib + Linsitinib (first compound 0.6325 µM), 0.954; in the assay with Veliparib + Linsitinib (first compound 2 µM) it was 0.995; with Veliparib + Bortezomib (first compound 0.02 µM), 0.939. The relative viability with Veliparib + Bortezomib (first compound 0.06325 µM) came out at 1.02; in the assay with Veliparib + Bortezomib (first compound 0.2 µM), 0.842; with Veliparib + Bortezomib (first compound 0.6325 µM), 0.915; with Veliparib + Bortezomib (first compound 2 µM), 0.755; with Veliparib + Foretinib (first compound 0.02 µM), 1.09; in the assay with Veliparib + Foretinib (first compound 0.06325 µM), 0.975. Besides, the relative viability with Veliparib + Foretinib (first compound 0.2 µM) stood at 1.03; in the assay with Veliparib + Foretinib (first compound 0.6325 µM), 0.92; in the assay with Veliparib + Foretinib (first compound 2 µM), 0.969; in assay [1] (first compound 0.08 µM), 0.259; in assay [1] (first compound 0.253 µM) it was 0.431; in assay [1] (first compound 0.8 µM), 0.422. In addition, the relative viability in assay [1] (first compound 2.53 µM) worked out at 0.355; in assay [1] (first compound 8 µM) it was 0.401.

Turning to NCI-H1975, the relative viability was 0.933 in the assay with Veliparib + Linsitinib (first compound 0.02 µM); 0.951 in the assay with Veliparib + Linsitinib (first compound 0.06325 µM); 1.03 with Veliparib + Linsitinib (first compound 0.2 µM); 0.88 with Veliparib + Linsitinib (first compound 0.6325 µM); 0.931 with Veliparib + Linsitinib (first compound 2 µM); 0.394 in the assay with Veliparib + Bortezomib (first compound 0.02 µM). Further, the relative viability with Veliparib + Bortezomib (first compound 0.06325 µM) is 0.465; with Veliparib + Bortezomib (first compound 0.2 µM), 0.429; with Veliparib + Bortezomib (first compound 0.6325 µM) it was 0.412; in the assay with Veliparib + Bortezomib (first compound 2 µM), 0.424; with Veliparib + Foretinib (first compound 0.02 µM), 1.12; with Veliparib + Foretinib (first compound 0.06325 µM), 0.96. Moreover, the relative viability with Veliparib + Foretinib (first compound 0.2 µM) was found to be 0.903; with Veliparib + Foretinib (first compound 0.6325 µM) it was 0.881; with Veliparib + Foretinib (first compound 2 µM), 0.979; in assay [1] (first compound 0.08 µM) it was 0.69; in assay [1] (first compound 0.253 µM), 0.852; in assay [1] (first compound 0.8 µM), 0.707. Besides, the relative viability in assay [1] (first compound 2.53 µM) was determined as 0.692; in assay [1] (first compound 8 µM), 0.551.

NCI-H1993: the relative viability worked out at 0.7 with Veliparib + Linsitinib (first compound 0.02 µM); 0.683 with Veliparib + Linsitinib (first compound 0.06325 µM); 0.738 with Veliparib + Linsitinib (first compound 0.2 µM); 0.7 with Veliparib + Linsitinib (first compound 0.6325 µM); 0.726 with Veliparib + Linsitinib (first compound 2 µM); 0.994 with Veliparib + Bortezomib (first compound 0.02 µM). Also, the relative viability was 1.31 with Veliparib + Bortezomib (first compound 0.06325 µM); 1.13 in the assay with Veliparib + Bortezomib (first compound 0.2 µM); 1.03 in the assay with Veliparib + Bortezomib (first compound 0.6325 µM); 1.06 with Veliparib + Bortezomib (first compound 2 µM); 0.674 with Veliparib + Foretinib (first compound 0.02 µM); 0.7 with Veliparib + Foretinib (first compound 0.06325 µM). Further, the relative viability with Veliparib + Foretinib (first compound 0.2 µM) is 0.789; in the assay with Veliparib + Foretinib (first compound 0.6325 µM) it was 0.828; with Veliparib + Foretinib (first compound 2 µM) it was 0.79; in assay [1] (first compound 0.08 µM), 0.568; in assay [1] (first compound 0.253 µM), 0.627; in assay [1] (first compound 0.8 µM) it was 0.517. For the same cell line, the relative viability in assay [1] (first compound 2.53 µM) was determined as 0.6; in assay [1] (first compound 8 µM), 0.567.

For NCI-H2009, the relative viability with Veliparib + Linsitinib (first compound 0.02 µM) is 1.27; with Veliparib + Linsitinib (first compound 0.06325 µM), 1.17; with Veliparib + Linsitinib (first compound 0.2 µM), 1.16; with Veliparib + Linsitinib (first compound 0.6325 µM) it was 1.14; with Veliparib + Linsitinib (first compound 2 µM), 1.22; with Veliparib + Bortezomib (first compound 0.02 µM), 0.299. In addition, the relative viability came out at 0.869 with Veliparib + Bortezomib (first compound 0.06325 µM); 0.808 with Veliparib + Bortezomib (first compound 0.2 µM); 0.919 with Veliparib + Bortezomib (first compound 0.6325 µM); 1.15 with Veliparib + Bortezomib (first compound 2 µM); 1.35 in the assay with Veliparib + Foretinib (first compound 0.02 µM); 1.21 with Veliparib + Foretinib (first compound 0.06325 µM). Also, the relative viability was determined as 1.17 with Veliparib + Foretinib (first compound 0.2 µM); 1.2 with Veliparib + Foretinib (first compound 0.6325 µM); 1.28 with Veliparib + Foretinib (first compound 2 µM); 0.65 in assay [1] (first compound 0.08 µM); 0.514 in assay [1] (first compound 0.253 µM); 0.741 in assay [1] (first compound 0.8 µM). Besides, the results for the relative viability in assay [1] (first compound 2.53 µM) and in assay [1] (first compound 8 µM) were 0.73 and 0.64, respectively.

In the case of NCI-H2023, the relative viability with Veliparib + Linsitinib (first compound 0.02 µM) amounted to 0.712; with Veliparib + Linsitinib (first compound 0.06325 µM), 0.692; in the assay with Veliparib + Linsitinib (first compound 0.2 µM), 0.677; with Veliparib + Linsitinib (first compound 0.6325 µM) it was 0.538; with Veliparib + Linsitinib (first compound 2 µM), 0.658; with Veliparib + Bortezomib (first compound 0.02 µM), 0.505. Also, the relative viability in the assay with Veliparib + Bortezomib (first compound 0.06325 µM) was 0.913; in the assay with Veliparib + Bortezomib (first compound 0.2 µM) it was 0.937; in the assay with Veliparib + Bortezomib (first compound 0.6325 µM), 0.965; in the assay with Veliparib + Bortezomib (first compound 2 µM), 0.924; in the assay with Veliparib + Foretinib (first compound 0.02 µM), 0.78; with Veliparib + Foretinib (first compound 0.06325 µM), 0.691. In addition, the relative viability with Veliparib + Foretinib (first compound 0.2 µM) was found to be 0.852; in the assay with Veliparib + Foretinib (first compound 0.6325 µM), 0.885; with Veliparib + Foretinib (first compound 2 µM) it was 0.788; in assay [1] (first compound 0.08 µM), 0.296; in assay [1] (first compound 0.253 µM) it was 0.314; in assay [1] (first compound 0.8 µM), 0.415. The values for the relative viability in assay [1] (first compound 2.53 µM) and in assay [1] (first compound 8 µM) were 0.389 and 0.396, respectively.

Consider NCI-H2085, for which the relative viability was 0.929 with Veliparib + Linsitinib (first compound 0.02 µM); 0.871 with Veliparib + Linsitinib (first compound 0.06325 µM); 0.854 with Veliparib + Linsitinib (first compound 0.2 µM); 0.779 in the assay with Veliparib + Linsitinib (first compound 0.6325 µM); 0.965 with Veliparib + Linsitinib (first compound 2 µM); 0.655 with Veliparib + Bortezomib (first compound 0.02 µM). In addition, the relative viability in the assay with Veliparib + Bortezomib (first compound 0.06325 µM) was 0.915; in the assay with Veliparib + Bortezomib (first compound 0.2 µM) it was 0.898; with Veliparib + Bortezomib (first compound 0.6325 µM) it was 1.07; with Veliparib + Bortezomib (first compound 2 µM), 0.862; in the assay with Veliparib + Foretinib (first compound 0.06325 µM) it was 0.787; with Veliparib + Foretinib (first compound 0.2 µM) it was 0.909. The relative viability amounted to 0.647 with Veliparib + Foretinib (first compound 0.6325 µM); 1.15 with Veliparib + Foretinib (first compound 2 µM); 0.859 in assay [1] (first compound 0.08 µM); 0.817 in assay [1] (first compound 0.253 µM); 0.96 in assay [1] (first compound 0.8 µM); 0.907 in assay [1] (first compound 2.53 µM). The relative viability in assay [1] (first compound 8 µM) amounted to 0.751.
